Read-outs that look alike come from different tables or passages of the source.
Columns and labels:
Salmonella TA100 = assay: Salmonella plate-incorporation mutagenicity assay, strain TA100; assay type: cell-based
Salmonella = details: cited from earlier work
Salmonella TA104 = assay: Salmonella plate-incorporation mutagenicity assay, strain TA104, with S9 mix; assay type: cell-based
strain TA100 = assay type: cell-based, Salmonella; details: TA100 liquid-suspension; for Percent survival: DMSO 100
[1] = tested on: DNA from Salmonella TA100; assay: Stable DNA adducts by 32P-postlabeling in DNA of treated TA100; assay type: cell-based; details: DMSO 0.024 ± 0.000
Salmonella TA98 = assay: Salmonella plate-incorporation mutagenicity assay, strain TA98, with S9 mix; assay type: cell-based
[2] = tested on: DNA from Salmonella TA100; assay: Abasic sites by aldehydic-site assay in DNA of treated TA100; assay type: cell-based; details: DMSO 5.9 ± 0.33

Compound: O[C@@H]1C=Cc2c(ccc3ccc4ccccc4c23)[C@H]1O (racemic) [B[c]P 3,4-diol, (± )-trans-3,4-Dihydrobenzo[c]phenanthrene 3,4-diol]
- Rev/plate (Salmonella TA100; TA100 +S9, Test 1, 2 µg/plate, zero-dose 99/110/110): 694 rev/plate
- Rev/plate (Salmonella TA100; TA100 +S9, Test 1, 5 µg/plate, zero-dose 99/110/110): 1002 rev/plate
- Rev/plate (Salmonella TA100; TA100 +S9, Test 1, 10 µg/plate, zero-dose 99/110/110): 1067 rev/plate
- Rev/plate (Salmonella TA100; TA100 +S9, Test 1, 20 µg/plate, zero-dose 99/110/110): 942 rev/plate
- Rev/plate (Salmonella TA100; TA100 +S9, Test 1, 40 µg/plate, zero-dose 99/110/110): 381 rev/plate
- Rev/plate (Salmonella TA100; TA100 +S9, Test 1, 80 µg/plate, zero-dose 99/110/110): 100 rev/plate
- Rev/plate (Salmonella TA100; TA100 +S9, Test 2, 0.5 µg/plate, zero-dose 84/78/80): 151/162
- Rev/plate (Salmonella TA100; TA100 +S9, Test 2, 1 µg/plate, zero-dose 84/78/80): 244/241
- Rev/plate (Salmonella TA100; TA100 +S9, Test 2, 2.5 µg/plate, zero-dose 84/78/80): 533/604
- Rev/plate (Salmonella TA100; TA100 +S9, Test 2, 5 µg/plate, zero-dose 84/78/80): 598/153
- Rev/plate (Salmonella TA100; TA100 +S9, Test 3, 0.5 µg/plate, zero-dose 127/118/125): 335/357
- Rev/plate (Salmonella TA100; TA100 +S9, Test 3, 1 µg/plate, zero-dose 127/118/125): 474/494
- Rev/plate (Salmonella TA100; TA100 +S9, Test 3, 2.5 µg/plate, zero-dose 127/118/125): 848/945
- Rev/plate (Salmonella TA100; TA100 +S9, Test 3, 5 µg/plate, zero-dose 127/118/125): 1216/1218
- Rev/plate (Salmonella TA100; TA100 +S9, Test 4, 0.5 µg/plate, zero-dose 112/140/115): 328/304
- Rev/plate (Salmonella TA100; TA100 +S9, Test 4, 1 µg/plate, zero-dose 112/140/115): 613/577
- Rev/plate (Salmonella TA100; TA100 +S9, Test 4, 2.5 µg/plate, zero-dose 112/140/115): 938/941
- Rev/plate (Salmonella TA100; TA100 +S9, Test 4, 5 µg/plate, zero-dose 112/140/115): 1117/1140
- Mutagenic potency, Revertants/µg ± S.E., TA100 (Salmonella TA100; plate-incorporation, +S9): 268 ± 46 rev/µg
- Mutagenicity call TA100 (Salmonella TA100; plate-incorporation, +S9): (+) (Called mutagenic (+) based on showing reproducible, dose-related increases in rev/plate that reached or exceeded 2-fold relative to zero-dose controls)
- Mutagenicity in Salmonella (early studies) (Salmonella): mutagenic
- Rev/plate (Salmonella TA104; TA104 +S9, Test 1, 0.5 µg/plate, zero-dose 379/400/370): 770/707
- Rev/plate (Salmonella TA104; TA104 +S9, Test 1, 1 µg/plate, zero-dose 379/400/370): 1007/1137
- Rev/plate (Salmonella TA104; TA104 +S9, Test 1, 2.5 µg/plate, zero-dose 379/400/370): 1618/1616
- Rev/plate (Salmonella TA104; TA104 +S9, Test 1, 5 µg/plate, zero-dose 379/400/370): 1925/2036
- Rev/plate (Salmonella TA104; TA104 +S9, Test 3, 0.5 µg/plate, zero-dose 402/395/336): 663/615
- Rev/plate (Salmonella TA104; TA104 +S9, Test 3, 1 µg/plate, zero-dose 402/395/336): 923/920
- Rev/plate (Salmonella TA104; TA104 +S9, Test 3, 2.5 µg/plate, zero-dose 402/395/336): 1368/1509
- Rev/plate (Salmonella TA104; TA104 +S9, Test 3, 5 µg/plate, zero-dose 402/395/336): 1781/1775
- Rev/plate (Salmonella TA104; TA104 +S9, Test 4, 0.5 µg/plate, zero-dose 482/455/462): 655/635
- Rev/plate (Salmonella TA104; TA104 +S9, Test 4, 1 µg/plate, zero-dose 482/455/462): 913/888
- Rev/plate (Salmonella TA104; TA104 +S9, Test 4, 2.5 µg/plate, zero-dose 482/455/462): 1375/1312
- Rev/plate (Salmonella TA104; TA104 +S9, Test 4, 5 µg/plate, zero-dose 482/455/462): 1807/1818
- Mutagenic potency, Revertants/µg ± S.E., TA104 (Salmonella TA104; plate-incorporation, +S9): 552 ± 62 rev/µg
- Mutagenicity call TA104 (Salmonella TA104; plate-incorporation, +S9): (+) (Called mutagenic (+) based on showing reproducible, dose-related increases in rev/plate that reached or exceeded 2-fold relative to zero-dose controls)
- Percent survival (strain TA100; 2 µg/ml): 56%
- Fold increase in mutant frequency relative to DMSO-treated cells (strain TA100; 5 µg/ml): 23.4 fold
- Rev/10^6 survivors (strain TA100; 5 µg/ml, DMSO 0.8): 18.7 Rev/10^6 survivors
- Percent survival (strain TA100; 5 µg/ml): 20%
- Stable adducts/10^8 nucleotides ± S.E ([1]; TA100, 2 µg/ml): 5.900 ± 0.230 adducts/10^8 nucleotides
- Stable adducts/10^8 nucleotides ± S.E ([1]; TA100, 5 µg/ml): 4.500 ± 0.034 adducts/10^8 nucleotides
- Rev/plate (Salmonella TA98; TA98 +S9, Test 1, 2 µg/plate, zero-dose 33/40/39): 47 rev/plate
- Rev/plate (Salmonella TA98; TA98 +S9, Test 1, 5 µg/plate, zero-dose 33/40/39): 100 rev/plate
- Rev/plate (Salmonella TA98; TA98 +S9, Test 1, 10 µg/plate, zero-dose 33/40/39): 120 rev/plate
- Rev/plate (Salmonella TA98; TA98 +S9, Test 1, 20 µg/plate, zero-dose 33/40/39): 226 rev/plate
- Rev/plate (Salmonella TA98; TA98 +S9, Test 1, 40 µg/plate, zero-dose 33/40/39): 303 rev/plate
- Rev/plate (Salmonella TA98; TA98 +S9, Test 1, 80 µg/plate, zero-dose 33/40/39): 417 rev/plate
- Rev/plate (Salmonella TA98; TA98 +S9, Test 2, 5 µg/plate, zero-dose 43/41/30): 120/112
- Rev/plate (Salmonella TA98; TA98 +S9, Test 2, 10 µg/plate, zero-dose 43/41/30): 180/199
- Rev/plate (Salmonella TA98; TA98 +S9, Test 2, 20 µg/plate, zero-dose 43/41/30): 310/260
- Rev/plate (Salmonella TA98; TA98 +S9, Test 2, 40 µg/plate, zero-dose 43/41/30): 460/414
- Rev/plate (Salmonella TA98; TA98 +S9, Test 2, 80 µg/plate, zero-dose 43/41/30): 492/423
- Rev/plate (Salmonella TA98; TA98 +S9, Test 3, 5 µg/plate, zero-dose 49/50/50): 145/173
- Rev/plate (Salmonella TA98; TA98 +S9, Test 3, 10 µg/plate, zero-dose 49/50/50): 238/242
- Rev/plate (Salmonella TA98; TA98 +S9, Test 3, 20 µg/plate, zero-dose 49/50/50): 350/328
- Rev/plate (Salmonella TA98; TA98 +S9, Test 3, 40 µg/plate, zero-dose 49/50/50): 458/504
- Rev/plate (Salmonella TA98; TA98 +S9, Test 3, 80 µg/plate, zero-dose 49/50/50): 509/597
- Mutagenic potency, Revertants/µg ± S.E., TA98 (Salmonella TA98; plate-incorporation, +S9): 11.1 ± 3.0 rev/µg
- Mutagenicity call TA98 (Salmonella TA98; plate-incorporation, +S9): (+) (Called mutagenic (+) based on showing reproducible, dose-related increases in rev/plate that reached or exceeded 2-fold relative to zero-dose controls)
- Abasic sites/10^5 nucleotides ± S.E ([2]; TA100, 2 µg/ml): 4.2 ± 0.16 sites/10^5 nucleotides
- Abasic sites/10^5 nucleotides ± S.E ([2]; TA100, 5 µg/ml): 5.3 ± 0.27 sites/10^5 nucleotides
